Experimental data as given in patent publication EP0745595A1, “3-(3-Aryloxyphenyl)-1-(substituted methyl)-s-triazine-2,4,6-oxo or thiotrione herbicidal agents” (American Cyanamid Company, priority 1995, dated 1996).

Legend:
Type in all cases: in vivo
[1] = system: CYPERUS SEROTINUS, ROTTB.; experiment: Preemergence weed control under flooded paddy conditions, CYPSE (Flatsedge); settings: preemergence, 3-4 weeks after treatment
In short: (§1)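 Visual 0-9 rating against untreated control, covering stand, vigor, malformation, size and chlorosis, scored three to four weeks post-treatment in a greenhouse. Application was into 1.5-3 cm flood water over silt loam sown at 0.5 cm. The 50/50 v/v aqueous/acetone doses were about 0.5, 0.25, 0.125 and 0.063 kg/ha.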

[2] = system: […], PRESL.; experiment: Preemergence weed control under flooded paddy conditions, MOOVA (Monochoria); settings: preemergence, 3-4 weeks after treatment
In short: as §1

[3] = system: CASSIA OBTUSIFOLIA, L.; experiment: Preemergence herbicidal evaluation, CASOB (Sicklepod); settings: rated four to five weeks after treatment
Source text: (§2) Results of herbicide evaluation are expressed on a rating scale (0-9). The scale is based upon a visual observation of plant stand, vigor, malformation, size, chlorosis and overall plant appearance as compared with a control.
(§3) The preemergence herbicidal activity of the test compounds of the present invention is exemplified by the following tests in which the seeds of a variety of monocotyledonous and dicotyledonous plants are separately mixed with potting soil and planted on top of approximately one inch of soil in separate pint cups. […] The treated cups are then placed on greenhouse benches, watered and cared for in accordance with conventional greenhouse procedures. From four to five weeks after treatment, the tests are terminated and each cup is examined and rated according to the rating system provided in Example 40.
(§4) The compounds evaluated are reported by compound number given in Example 40.

[4] = system: IPOMOEA SPP.; experiment: Preemergence herbicidal evaluation, IPOSS (Morningglory spp.); settings: rated four to five weeks after treatment
Source text: as §2, §3, §4

[5] = system: ZEA MAYS L.; experiment: Preemergence herbicidal evaluation, ZEAMX (Corn, Field); settings: rated four to five weeks after treatment
Source text: as §2, §3, §4

[6] = system: ECHINOCHLOA CRUS-GALLI, (L) BEAU; experiment: Preemergence herbicidal evaluation, ECHCG (Barnyardgrass); settings: rated four to five weeks after treatment
Source text: as §2, §3, §4

[7] = system: ORYZA SATIVA, L. TEBONNET; experiment: Rice tolerance to post-transplant applications under flooded paddy conditions, ORYSAT (Rice, Tebonnet); settings: post-transplant rice, 3-4 weeks after treatment
In short: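 Rated on a visual 0–9 scale against untreated plants 3–4 weeks after application, rice (cv. Tebonnet) tolerance was tested by applying compounds (approx. 0.5–0.063 kg/ha, acetone/water 50/50) to flooded soil three days post-transplant, water kept 1.5–3 cm deep.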

[8] = system: SAGITTARIA PYGMAEA, L.; experiment: Preemergence weed control under flooded paddy conditions, SAGPY (Arrowhead (Pygmaea)); settings: preemergence, 3-4 weeks after treatment
In short: as §1

[9] = system: SETARIA VIRIDIS, (L) BEAU; experiment: Postemergence herbicidal evaluation, SETVI (Foxtail, Green); design: key to SETVI rating / Herbicidal effect rating, SETVI / SETVI: 0-9 visual rating scale vs untreated control
In short: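 Each value is a 0–9 visual rating of plant appearance compared with control, recorded 4–5 weeks after a 0.125–0.500 kg/ha spray, with multiple tests averaged.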

[10] = system: CHENOPODIUM ALBUM, L.; experiment: Preemergence herbicidal evaluation, CHEAL (Lambsquarters, Common); settings: rated four to five weeks after treatment
In short: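 Injury scored visually (0–9; stand, vigor, malformation, size, chlorosis) versus untreated control, four to five weeks post-treatment. Application: aqueous acetone spray onto freshly planted soil cups, equivalent to about 0.125 to 0.50 kg/ha, plants then kept under standard greenhouse care.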

[11] = system: GLYCINE MAX(L) MERR. CV. WILLIAMS; experiment: Preemergence herbicidal evaluation, GLXMAW (Soybean, Williams); settings: rated four to five weeks after treatment
Source text: as §2, §3, §4

[12] = system: ECHINOCHLOA ORYZOIDES (ARD.)FRITSCH; experiment: Preemergence weed control under flooded paddy conditions, ECHORC (Watergrass (Calif.)); settings: preemergence, 3-4 weeks after treatment
In short: as §1

[13] = system: TRITICUM AESTIVUM, CV. APOLLO; experiment: Preemergence herbicidal evaluation, TRZAWO (Wheat, Winter, CV. APOLLO); settings: rated four to five weeks after treatment
Source text: as §2, §3, §4

Structure (SMILES): Cn1c(=O)n(CC(N)=O)c(=O)n(-c2cc(Oc3ncc(C(F)(F)F)cc3Cl)ccc2Br)c1=O [Compound 42]
- Herbicidal effect rating, CYPSE ([1]; 0.250 kg/ha): 0.0
- Herbicidal effect rating, CYPSE ([1]; 0.500 kg/ha): 0.0
- Herbicidal effect rating, MOOVA ([2]; 0.250 kg/ha): 0.0
- Herbicidal effect rating, MOOVA ([2]; 0.500 kg/ha): 0.0
- CASOB herbicidal rating ([3]; Rate 0.125 kg/ha): 0.0
- CASOB herbicidal rating ([3]; Rate 0.250 kg/ha): 0.0
- CASOB herbicidal rating ([3]; Rate 0.500 kg/ha): 0.0
- IPOSS herbicidal rating ([4]; Rate 0.125 kg/ha): 0.0
- IPOSS herbicidal rating ([4]; Rate 0.250 kg/ha): 0.0
- IPOSS herbicidal rating ([4]; Rate 0.500 kg/ha): 0.0
- ZEAMX herbicidal rating ([5]; Rate 0.125 kg/ha): 0.0
- ZEAMX herbicidal rating ([5]; Rate 0.250 kg/ha): 0.0
- ZEAMX herbicidal rating ([5]; Rate 0.500 kg/ha): 0.0
- ECHCG herbicidal rating ([6]; Rate 0.125 kg/ha): 0.0
- ECHCG herbicidal rating ([6]; Rate 0.250 kg/ha): 0.0
- ECHCG herbicidal rating ([6]; Rate 0.500 kg/ha): 0.0
- Herbicidal effect rating, ORYSAT ([7]; 0.250 kg/ha): 1.0
- Herbicidal effect rating, ORYSAT ([7]; 0.500 kg/ha): 2.0
- Herbicidal effect rating, SAGPY ([8]; 0.250 kg/ha): 0.0
- Herbicidal effect rating, SAGPY ([8]; 0.500 kg/ha): 0.0
- SETVI rating ([9]; Rate 0.125 kg/ha): 1.0
- SETVI rating ([9]; Rate 0.250 kg/ha): 1.0
- SETVI rating ([9]; Rate 0.500 kg/ha): 1.0
- CHEAL herbicidal rating ([10]; Rate 0.125 kg/ha): 9.0
- CHEAL herbicidal rating ([10]; Rate 0.250 kg/ha): 9.0
- CHEAL herbicidal rating ([10]; Rate 0.500 kg/ha): 9.0
- GLXMAW herbicidal rating ([11]; Rate 0.125 kg/ha): 0.0
- GLXMAW herbicidal rating ([11]; Rate 0.250 kg/ha): 0.0
- GLXMAW herbicidal rating ([11]; Rate 0.500 kg/ha): 0.0
- Herbicidal effect rating, ECHORC ([12]; 0.250 kg/ha): 0.0
- Herbicidal effect rating, ECHORC ([12]; 0.500 kg/ha): 0.0

Structure (SMILES): COC(=O)Cn1c(=O)n(C)c(=O)n(-c2cc(Oc3ccc(Cl)cc3Cl)ccc2Br)c1=O [Compound 43, Methyl 3-[2-bromo-5-(2,4-dichlorophenoxy)-phenyl]tetrahydro-5-methyl-2,4,6-trioxo-s-triazine-1(2H)-acetate]
- Herbicidal effect rating, ORYSAT ([7]; 0.063 kg/ha): 2.0
- Herbicidal effect rating, ORYSAT ([7]; 0.125 kg/ha): 3.0
- Herbicidal effect rating, ORYSAT ([7]; 0.250 kg/ha): 4.0
- Herbicidal effect rating, ORYSAT ([7]; 0.500 kg/ha): 4.0
- TRZAWO herbicidal rating ([13]; Rate 0.125 kg/ha): 0.5
- TRZAWO herbicidal rating ([13]; Rate 0.250 kg/ha): 0.5
- TRZAWO herbicidal rating ([13]; Rate 0.500 kg/ha): 0.5
- CHEAL herbicidal rating ([10]; Rate 0.125 kg/ha): 9.0
- CHEAL herbicidal rating ([10]; Rate 0.250 kg/ha): 9.0
- CHEAL herbicidal rating ([10]; Rate 0.500 kg/ha): 9.0
- Herbicidal effect rating, ECHORC ([12]; 0.063 kg/ha): 9.0
- Herbicidal effect rating, ECHORC ([12]; 0.125 kg/ha): 9.0
- Herbicidal effect rating, ECHORC ([12]; 0.250 kg/ha): 9.0
- Herbicidal effect rating, ECHORC ([12]; 0.500 kg/ha): 9.0
